For experiment [1], the system named is Cortical neurone. Put plainly: Neurotrophic activity in isolated embryonic mouse embryonic Cortical neurons assessed as induction of neurite outgrowth at 1 uM after 48 hrs relative to control. It is filed as functional.
Experiment [2] concerns Cortical neurone. Put plainly: Neurotrophic activity in isolated embryonic mouse embryonic Cortical neurons assessed as induction of neurite outgrowth at 0.1 uM after 48 hrs relative to control. It is filed as functional.
Experiment [3] in a line: Neurotrophic activity in isolated embryonic mouse brain Hippocampal neurons assessed as induction of neurite outgrowth at 1 uM after 48 hrs relative to control. The class given is functional, Hippocampal neuron.
In the next experiment the test system is Hippocampal neuron. Put plainly: Neurotrophic activity in isolated embryonic mouse brain Hippocampal neurons assessed as induction of neurite outgrowth after 48 hrs relative to control. It is filed as functional.
Experiment [4] can be described thus: Neurotrophic activity in isolated embryonic mouse brain Hippocampal neurons assessed as induction of neurite outgrowth at 0.1 uM after 48 hrs relative to control. The class given is functional, Hippocampal neuron.
In experiment [5] the test system is Cortical neurone. In words: Neurotrophic activity in isolated embryonic mouse embryonic Cortical neurons assessed as induction of neurite outgrowth at 0.01 uM after 48 hrs relative to control. It is filed as functional.
Experiment [6] addresses T1, Choline O-acetyltransferase (Rattus norvegicus) (UniProt P32738).
T1 sequence (whole entry): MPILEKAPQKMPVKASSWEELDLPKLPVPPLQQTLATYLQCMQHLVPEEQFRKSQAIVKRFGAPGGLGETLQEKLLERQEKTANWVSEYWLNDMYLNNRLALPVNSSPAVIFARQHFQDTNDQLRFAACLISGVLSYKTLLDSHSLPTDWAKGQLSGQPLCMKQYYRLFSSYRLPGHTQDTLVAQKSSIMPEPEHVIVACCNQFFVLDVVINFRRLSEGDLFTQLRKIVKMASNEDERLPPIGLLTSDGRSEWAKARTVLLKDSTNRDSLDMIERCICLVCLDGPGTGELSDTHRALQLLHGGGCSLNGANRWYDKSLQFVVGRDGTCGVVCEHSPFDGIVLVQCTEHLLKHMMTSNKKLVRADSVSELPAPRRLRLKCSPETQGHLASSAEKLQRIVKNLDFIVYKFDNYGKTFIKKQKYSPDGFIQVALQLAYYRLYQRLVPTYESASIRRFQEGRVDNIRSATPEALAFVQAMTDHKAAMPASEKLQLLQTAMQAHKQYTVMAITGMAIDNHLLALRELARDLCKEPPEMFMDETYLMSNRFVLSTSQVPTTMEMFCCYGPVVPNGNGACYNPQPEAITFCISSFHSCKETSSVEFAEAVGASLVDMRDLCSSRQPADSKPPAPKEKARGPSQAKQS
Put plainly: Increase in choline acetyltransferase activity in rat brain neurons at […] after 10 days relative to control. The class given is tissue-based.

Experiment [7] can be described thus: Neurotrophic activity in isolated embryonic mouse brain Hippocampal neurons assessed as induction of neurite outgrowth at 0.01 uM after 48 hrs relative to control. It is filed as functional, Hippocampal neuron.
For experiment [8], the system named is Cortical neurone. Put plainly: Neurotrophic activity in isolated embryonic mouse embryonic Cortical neurons assessed as induction of neurite outgrowth after 48 hrs relative to control. The class given is functional.

For `C=CCc1ccc(O)c(-c2cc(CC=C)ccc2O[C@H]2CC(C)(C)[C@@H]3CC[C@]4(C)C[C@]23CC[C@H]4O)c1` [CLOVANEMAGNOLOL], the Activity was -80.7% in the experiment on Cortical neurone [1]; 22.7% in the experiment on Cortical neurone [2]; -83.9% in experiment [3]; “Dose-dependent effect” with Hippocampal neuron; 26.5% in [4]; 44.2% in the experiment on Cortical neurone [5]. In addition, the Activity is 142% in experiment [6], 62.8% in experiment [7] and “Dose-dependent effect” with Cortical neurone [8].

Turning to `C=CCc1ccc(O)c(-c2cc(CC=C)ccc2O)c1` [MAGNOLOL], the Activity in the experiment on Cortical neurone [1] was -74.6%; with Cortical neurone [2] it was 55.6%; in experiment [3], -69%; in the experiment with Hippocampal neuron, “Dose-dependent effect”; in experiment [4], 23.9%; in the experiment on Cortical neurone [5], 20.2%. For the same compound, the Activity is 50.1% in experiment [7] and “Dose-dependent effect” with Cortical neurone [8].
